According to patent US11780826B2 (Amgen Inc., priority 2017, dated 2023):

Test system: Bovine cardiac myofibrils
Assay: In vitro model of dose-dependent myofibril ATPase modulation (AC1.4, pyruvate kinase/lactate dehydrogenase-coupled ATPase assay at pCa25)
Assay type: biochemical
Details: concentration at which ATPase activity was 1.4-fold higher than the bottom of the dose curve, mean of a minimum of two independent tests
Procedure, shortened: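 Compound dilutions were premixed with myofibrils, coupling enzymes, EGTA and CaCl2, then the reaction was started with an equal volume carrying ATP (final 1 mM), NADH and PEP. ATP turnover was followed at 340 nm, and dose responses were fit to a four-parameter equation.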

SMILES	AC1.4 [µM]
Cc1ccc(CNC(=O)[C@H]2CCCN2C(=O)[C@H]2CCCN(S(=O)(=O)N3CC(C#N)C3)C2)cc1 [Example 243, 1-(((3S)-1-((3-cyano-1-azetidinyl)sulfonyl)-3-piperidinyl)carbonyl)-N-(4-methylbenzyl)-D-prolinamide]	0.5746
CNc1ccc(S(C)(=O)=O)cc1C(=O)N1[C@@H](C(=O)N[C@@H](c2ccc(C(F)(F)F)cc2F)C2CC2)C[C@H]2C[C@H]21 [Example 148, (1R,3R,5R)-N-((R)-cyclopropyl(2-fluoro-4-(trifluoromethyl)phenyl)methyl)-2-(2-(methylamino)-5-(methylsulfonyl)benzoyl)-2-azabicyclo[3.1.0]hexane-3-carboxamide]	0.2569
Cc1ccc(CNC(=O)[C@H]2CCCN2C(=O)[C@H]2CCCN(S(=O)(=O)N3CC(C#N)C3)C2)cc1C [Example 336, 1-(((3S)-1-((3-cyano-1-azetidinyl)sulfonyl)-3-piperidinyl)carbonyl)-N-(3,4-dimethylbenzyl)-D-prolinamide]	0.9372
O=C(N[C@@H](c1cc(F)c(Cl)cc1F)C1COC1)[C@H]1C[C@H]2C[C@H]2N1C(=O)c1cc(C2CC2)ccn1 [Example 471, (1R,3R,5R)-N-((R)-(4-chloro-2,5-difluorophenyl)(3-oxetanyl)methyl)-2-((4-cyclopropyl-2-pyridinyl)carbonyl)-2-azabicyclo[3.1.0]hexane-3-carboxamide]	1.996
N#CC1CN(S(=O)(=O)N2CCC[C@H](C(=O)N3CCC[C@@H]3C(=O)NCc3ccc(F)c(C(F)(F)F)c3)C2)C1 [Example 297, 1-(((3S)-1-((3-cyano-1-azetidinyl)sulfonyl)-3-piperidinyl)carbonyl)-N-(4-fluoro-3-(trifluoromethyl)benzyl)-D-prolinamide]	0.7685
CC(C)(O)c1cccc(C(=O)N2[C@@H](C(=O)N[C@@H](c3cc(F)c(C(F)(F)F)cc3F)C3COC3)C[C@H]3C[C@H]32)c1 [Example 819, (1R,3R,5R)-N-((R)-(2,5-difluoro-4-(trifluoromethyl)phenyl)(oxetan-3-yl)methyl)-2-(3-(2-hydroxypropan-2-yl)benzoyl)-2-azabicyclo[3.1.0]hexane-3-carboxamide]	1.3468
CS(=O)(=O)c1cc(C(=O)N2CCC[C@@H]2C(=O)N[C@@H](c2ccc(C(F)(F)F)cc2F)C2CC2)ccc1F [Example 690, N-((R)-cyclopropyl(2-fluoro-4-(trifluoromethyl)phenyl)methyl)-1-(4-fluoro-3-(methylsulfonyl)benzoyl)-D-prolinamide]	5.354
N#CC1CN(S(=O)(=O)N2CCC[C@H](C(=O)N3CCC[C@@H]3C(=O)NCc3cc(F)c(F)c(F)c3)C2)C1 [Example 153, 1-(((3S)-1-((3-cyano-1-azetidinyl)sulfonyl)-3-piperidinyl)carbonyl)-N-(3,4,5-trifluorobenzyl)-D-prolinamide]	0.2697
O=C(N[C@@H](c1ccc(C(F)(F)F)cc1F)C1CC1)[C@H]1CCCN1C(=O)c1cccc(C2CC2)c1 [Example 369, 1-(3-cyclopropylbenzoyl)-N-((R)-cyclopropyl(2-fluoro-4-(trifluoromethyl)phenyl)methyl)-D-prolinamide]	1.1795
N#CC1CN(S(=O)(=O)c2cccc(C(=O)N3CCC[C@@H]3C(=O)NCc3ncc(Cl)s3)c2)C1 [Example 376, N-((5-chloro-1,3-thiazol-2-yl)methyl)-1-((3-((3-cyano-1-azetidinyl)sulfonyl)phenyl)carbonyl)-D-prolinamide]	1.2296
CC(NC(=O)[C@H]1CCCN1C(=O)[C@H]1CCCN(S(=O)(=O)N2CC(C#N)C2)C1)c1ccc(F)cc1 (stereo partly drawn) [Example 729, 1-(((3S)-1-((3-cyano-1-azetidinyl)sulfonyl)-3-piperidinyl)carbonyl)-N-((1R)-1-(4-fluorophenyl)ethyl)-D-prolinamide,1-(((3S)-1-((3-cyano-1-azetidinyl)sulfonyl)-3-piperidinyl)carbonyl)-N-((1S)-1-(4-fluorophenyl)ethyl)-D-prolinamide]	6.7185
N#CC1CN(S(=O)(=O)N2CCC[C@H](C(=O)N3CCC[C@@H]3C(=O)NCc3ccc(C4CC4)cc3)C2)C1 [Example 447, 1-(((3S)-1-((3-cyano-1-azetidinyl)sulfonyl)-3-piperidinyl)carbonyl)-N-(4-cyclopropylbenzyl)-D-prolinamide]	1.831
O=C(NCc1ccc(C(F)(F)F)cc1)[C@H]1CCCN1C(=O)[C@H]1CCCN(S(=O)(=O)N2CC(c3cccc(Cl)c3)C2)C1 [Example 398, 1-(((3S)-1-((3-(3-chlorophenyl)-1-azetidinyl)sulfonyl)-3-piperidinyl)carbonyl)-N-(4-(trifluoromethyl)benzyl)-D-prolinamide]	1.4045
CS(=O)(=O)c1cccc(C(=O)N2C[C@H](F)C[C@@H]2C(=O)N[C@@H](c2ccc(C(F)(F)F)cc2F)C2CC2)c1 [Example 619, (4R)-N-((R)-cyclopropyl(2-fluoro-4-(trifluoromethyl)phenyl)methyl)-4-fluoro-1-(3-(methylsulfonyl)benzoyl)-D-prolinamide]	3.929
CS(=O)(=O)c1ccc(C(=O)N2CCC[C@@H]2C(=O)NC(c2ccc(C(F)(F)F)cc2F)C2CC2)s1 (stereo partly drawn) [Example 567, (2R)-N-(cyclopropyl(2-fluoro-4-(trifluoromethyl)phenyl)methyl)-1-(5-(methylsulfonyl)thiophene-2-carbonyl)pyrrolidine-2-carboxamide]	3.1075
CS(=O)(=O)N1CC(c2cccc(C(=O)N3CCC[C@@H]3C(=O)N[C@@H](c3ccc(C(F)(F)F)cc3F)C3CC3)c2)C1 [Example 704]	5.725
O=C(N[C@@H](c1ccc(C(F)(F)F)cc1F)C1COC1)[C@H]1C[C@H]2C[C@H]2N1C(=O)c1ccnc(C(F)(F)F)c1 [Example 392, (1R,3R,5R)-N-((R)-(2-fluoro-4-(trifluoromethyl)phenyl)(3-oxetanyl)methyl)-2-((2-(trifluoromethyl)-4-pyridinyl)carbonyl)-2-azabicyclo[3.1.0]hexane-3-carboxamide]	1.268
CC(C)[C@H](NC(=O)[C@H]1CCCN1C(=O)c1cccc(S(=O)(=O)N2CC(C#N)C2)c1)c1ccc(C(F)(F)F)cc1F [Example 220, 1-(3-((3-cyano-1-azetidinyl)sulfonyl)benzoyl)-N-((1S)-1-(2-fluoro-4-(trifluoromethyl)phenyl)-2-methylpropyl)-D-prolinamide]	0.4809
C[C@@H](NC(=O)[C@H]1COCCN1C(=O)[C@H]1CCCN(S(=O)(=O)N2CC(C#N)C2)C1)c1ccc(C(F)(F)F)cc1 [Example 175, (3R)-4-(((3S)-1-((3-cyano-1-azetidinyl)sulfonyl)-3-piperidinyl)carbonyl)-N-((1R)-1-(4-(trifluoromethyl)phenyl)ethyl)-3-morpholinecarboxamide]	0.3064
CCS(=O)(=O)c1cccc(C(=O)N2[C@@H](C(=O)N[C@@H](c3ccc(C(F)(F)F)cc3)C3COC3)C[C@H]3C[C@H]32)c1 [Example 275, (1R,3R,5R)-2-(3-(ethylsulfonyl)benzoyl)-N-((R)-3-oxetanyl(4-(trifluoromethyl)phenyl)methyl)-2-azabicyclo[3.1.0]hexane-3-carboxamide]	0.6922
N#CC1CN(S(=O)(=O)N2CC3CC2[C@@H](C(=O)N2CCC[C@@H]2C(=O)NCc2ccc(C(F)(F)F)cc2F)C3)C1 (stereo partly drawn) [Example 189, 1-((2-((3-cyano-1-azetidinyl)sulfonyl)-2-azabicyclo[2.2.1]hept-6-yl)carbonyl)-N-(2-fluoro-4-(trifluoromethyl)benzyl)-D-prolinamide]	0.3524
COc1ccc(S(C)(=O)=O)cc1C(=O)N1[C@@H](C(=O)N[C@@H](c2ccc(C(F)(F)F)cc2)C2COC2)C[C@H]2C[C@H]21 [Example 808, (1R,3R,5R)-2-(2-methoxy-5-(methylsulfonyl)benzoyl)-N-((R)-3-oxetanyl(4-(trifluoromethyl)phenyl)methyl)-2-azabicyclo[3.1.0]hexane-3-carboxamide]	4.6765
O=C(N[C@@H](c1ccc(C(F)(F)F)cc1F)C1CC1)[C@H]1C[C@H]2C[C@H]2N1C(=O)c1cc(C(F)(F)F)ccn1 [Example 573, (1R,3R,5R)-N-((R)-cyclopropyl(2-fluoro-4-(trifluoromethyl)phenyl)methyl)-2-((4-(trifluoromethyl)-2-pyridinyl)carbonyl)-2-azabicyclo[3.1.0]hexane-3-carboxamide]	3.224
O=C(NCc1ccc(C(F)(F)F)cc1)[C@H]1CCCN1C(=O)[C@H]1CCCN(S(=O)(=O)N2CC(F)(c3ccccc3)C2)C1 [Example 463, 1-(((3S)-1-((3-fluoro-3-phenyl-1-azetidinyl)sulfonyl)-3-piperidinyl)carbonyl)-N-(4-(trifluoromethyl)benzyl)-D-prolinamide]	1.9305
Cc1noc(C)c1C(=O)N1[C@@H](C(=O)N[C@@H](c2cc(F)c(C(F)(F)F)cc2F)C2COC2)C[C@H]2C[C@H]21 [Example 825, (1R,3R,5R)-N-((R)-(2,5-difluoro-4-(trifluoromethyl)phenyl)(oxetan-3-yl)methyl)-2-(3,5-dimethylisoxazole-4-carbonyl)-2-azabicyclo[3.1.0]hexane-3-carboxamide]	9.3793
CS(=O)(=O)c1cccc(C(=O)N2CC=C[C@@H]2C(=O)N[C@@H](c2ccc(C(F)(F)F)cc2F)C2CC2)c1 [Example 401, (2R)-N-((R)-cyclopropyl(2-fluoro-4-(trifluoromethyl)phenyl)methyl)-1-(3-(methylsulfonyl)benzoyl)-2,5-dihydro-1H-pyrrole-2-carboxamide]	1.378
CN(C)S(=O)(=O)c1cccc(C(=O)N2CCC[C@@H]2C(=O)N[C@H](c2ccc(Cl)c(F)c2)C2CC2)c1 [Example 408, N-((S)-(4-chloro-3-fluorophenyl)(cyclopropyl)methyl)-1-(3-(dimethylsulfamoyl)benzoyl)-D-prolinamide]	1.479
